Source: patent publication EP4793279A1, “COMPOUND AND METHOD FOR TREATING AND/OR […] KERATOSIS” (priority 2023, dated 2025)
Like-named read-outs stand apart in the source and are kept apart here.

Legend:
beclin1 = beclin1 (Homo sapiens, UniProt Q14457); conditions: targets beclin1; cited from earlier work
[1] = tested on: experimental autoimmune encephalomyelitis (EAE); conditions: in vivo; cited from earlier work
[2] = 20 °C
[3] = tested on: human liver cancer HepG2 cells; conditions: cited from earlier work
[4] = in water
[5] = for plasma drug concentrations above the LLOQ: topical gel, dose levels 1-5, LLOQ 0.02 ng/mL
[6] = for Labeled amount / Related substances Impurity A / Related substances Impurity B / Related substances Impurity C / Related substances Impurity D / Related substances Impurity E / Related substances Impurity F / Related substances RRT0.73 / Related substances RRT1.10 / Related substances RRT2.18 / Related substances Total impurities: mixed 1:5 with CMC-Na
[7] = High humidity for 10 days (RH 90%±5%)
[8] = High temperature for 10 days (60°C±2°C)

beclin1, sequence (Q14457 whole entry, species assumed): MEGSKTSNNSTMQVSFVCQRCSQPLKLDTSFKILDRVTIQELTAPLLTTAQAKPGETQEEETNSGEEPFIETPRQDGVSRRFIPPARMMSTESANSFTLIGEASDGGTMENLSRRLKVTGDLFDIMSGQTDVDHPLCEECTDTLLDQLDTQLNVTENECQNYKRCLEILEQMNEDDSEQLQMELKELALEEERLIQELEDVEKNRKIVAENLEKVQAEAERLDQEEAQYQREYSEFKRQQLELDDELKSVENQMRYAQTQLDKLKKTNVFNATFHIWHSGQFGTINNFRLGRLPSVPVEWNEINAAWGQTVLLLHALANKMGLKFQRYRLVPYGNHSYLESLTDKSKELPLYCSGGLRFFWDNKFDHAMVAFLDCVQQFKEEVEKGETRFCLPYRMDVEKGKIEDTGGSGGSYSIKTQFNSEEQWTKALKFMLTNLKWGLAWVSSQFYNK

CO[C@H]1[C@H](O)[C@H](O[C@H]2CC[C@@]3(C)[C@H](CC[C@@H]4[C@@H]3CC[C@]3(C)[C@@H](C5=CC(=O)OC5)CC[C@]43O)C2)O[C@@H](C)[C@@H]1O [neriifolin]
formation of LC3-associated phagosomes (beclin1): inhibit the formation of LC3-associated phagosomes | progression of experimental autoimmune encephalomyelitis (EAE) [1]: ameliorate the progression

CO[C@H]1[C@H](O)[C@H](O[C@H]2CC[C@@]3(C)[C@H](CC[C@@H]4[C@@H]3CC[C@]3(C)[C@@H](C5=CC(=O)OC5)CC[C@]43O)C2)O[C@@H](C)[C@@H]1O [17β-neriifolin]
Dissolution behavior ([2]; Ethanol concentration 50 %, sample concentration 24 mg/g): Dissolved | Dissolution behavior ([2]; Ethanol concentration 66 %, sample concentration 32 mg/g): Dissolved | Dissolution behavior ([2]; Ethanol concentration 75 %, sample concentration 40 mg/g): Dissolved | Dissolution behavior ([2]; Ethanol concentration 100 %, sample concentration 50 mg/g): Dissolved | cell cycle arrest and apoptosis [3]: induce cell cycle arrest and apoptosis | water solubility [4]: about 70 µg/mL | systemic exposure, dose dependence ([5]; 0.008-0.06 mg/cm^2 dose range): No dose-dependent increase | plasma drug concentrations above the LLOQ ([5]; four Australian subjects): 0.021 to 0.101 ng/mL | plasma drug concentrations above the LLOQ ([5]; seven Chinese subjects): 0.022 to 0.106 ng/mL | stability of the combination ([6]; combination with sodium carboxymethyl cellulose compared with combination with Carbomer): significantly superior | impact on the related substances and drug content ([6]; combined 1:5 with sodium carboxymethyl cellulose, high temperature, high humidity, illumination, 10 days): no impact | Labeled amount ([6]; 0 days): 99.56% | Related substances Impurity A ([6]; 0 days): 0.17% | Related substances Impurity B ([6]; 0 days): 0.36% | Related substances Impurity C ([6]; 0 days): 0.25% | Related substances Impurity D ([6]; 0 days): 0.13% | Related substances Impurity E ([6]; 0 days): 0.15% | Related substances Impurity F ([6]; 0 days): 0.14% | Related substances RRT0.73 ([6]; 0 days): 0.05% | Related substances RRT1.10 ([6]; 0 days): 0.04% | Related substances RRT2.18 ([6]; 0 days): 0.03% | Related substances Total impurities ([6]; 0 days): 1.32% | Labeled amount [6, 7]: 99.42% | Related substances Impurity A [6, 7]: 0.17% | Related substances Impurity B [6, 7]: 0.36% | Related substances Impurity C [6, 7]: 0.25% | Related substances Impurity D [6, 7]: 0.13% | Related substances Impurity E [6, 7]: 0.15% | Related substances Impurity F [6, 7]: 0.14% | Related substances RRT0.73 [6, 7]: 0.05% | Related substances RRT1.10 [6, 7]: 0.04% | Related substances RRT2.18 [6, 7]: 0.03% | Related substances Total impurities [6, 7]: 1.32% | Labeled amount [6, 8]: 100.95% | Related substances Impurity A [6, 8]: 0.17% | Related substances Impurity B [6, 8]: 0.36% | Related substances Impurity C [6, 8]: 0.25% | Related substances Impurity D [6, 8]: 0.13% | Related substances Impurity E [6, 8]: 0.15% | Related substances Impurity F [6, 8]: 0.14% | Related substances RRT0.73 [6, 8]: 0.05% | Related substances RRT1.10 [6, 8]: 0.04% | Related substances RRT2.18 [6, 8]: 0.03% | Related substances Total impurities [6, 8]: 1.32% | Labeled amount ([6]; Strong light for 10 days): 99.96% | Related substances Impurity A ([6]; Strong light for 10 days): 0.17% | Related substances Impurity B ([6]; Strong light for 10 days): 0.36% | Related substances Impurity C ([6]; Strong light for 10 days): 0.25% | Related substances Impurity D ([6]; Strong light for 10 days): 0.13% | Related substances Impurity E ([6]; Strong light for 10 days): 0.15% | Related substances Impurity F ([6]; Strong light for 10 days): 0.14% | Related substances RRT0.73 ([6]; Strong light for 10 days): 0.05% | Related substances RRT1.10 ([6]; Strong light for 10 days): 0.04% | Related substances RRT2.18 ([6]; Strong light for 10 days): 0.03% | Related substances Total impurities ([6]; Strong light for 10 days): 1.32%
